Assay results reported in EP4417602A1, “SUBSTITUTED PYRAZOLE CARBOXAMIDES, SALTS THEREOF AND THEIR USE AS HERBICIDALLY ACTIVE SUBSTANCES” (Bayer AG, priority 2023, dated 2024).

Key:
[1] = tested on: POAAN; assay: A. Herbicidal pre-emergence action on harmful plants (Tables A); assay type: in vivo, Poa annua
How it was run: (§1)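 Greenhouse pre-emergence test: compound applied to the soil surface at 1280 g/ha or below, and herbicidal effect rated visually at ca. 3 weeks on a 0–100% scale against untreated plants.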

[2] = tested on: VERPE; assay: B. Herbicidal post-emergence action on harmful plants (Tables B); assay type: in vivo, Veronica persica; settings: application rate 1280 g/ha; Table B11a
How it was run: (§2)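 Activity was scored visually as % damage (100% = dead, 0% = like untreated) about 3 weeks after treatment. Plants at the one-leaf stage, 2-3 weeks old, were sprayed with WP/EC formulations plus 0.5% additive (600 L/ha water, up to 1280 g/ha). Plants were grown in sandy loam in a greenhouse.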

[3] = tested on: SETVI; assay: A. Herbicidal pre-emergence action on harmful plants (Tables A); assay type: in vivo, Setaria viridis; settings: visual grading after ca. 3 weeks vs untreated controls, 100% = plants have died off, 0% = as control plants
How it was run: as §1

[4] = tested on: DIGSA; assay: as above; assay type: in vivo, Digitaria sanguinalis
How it was run: as §1

[5] = tested on: KCHSC; assay: as above; assay type: in vivo, Kochia scoparia; settings: application rate 1280 g/ha; visual grading after ca. 3 weeks vs untreated controls; 100% = plants have died off, 0% = as control plants
Source text: (§3) Seeds of mono- and dicotyledonous weed plants were sown in plastic pots (double sowings with one species of mono- and one species of dicotyledonous weed plants per pot), in sandy loam, and covered with soil. The compounds according to the invention, formulated in the form of wettable powders (WP) or as emulsifiable concentrates (EC), were applied to the surface of the covering soil as aqueous suspension or emulsion, with the addition of 0.5% of an additive, at an application rate of 6001 of water per hectare (converted). Following treatment, the pots were placed in a greenhouse and kept under optimum growth conditions for the test plants. The visual grading of the damage to the test plants was carried out after ca. 3 weeks in comparison to untreated controls (herbicidal effect in percent (%): 100% effect = plants have died off, 0% effect = as control plants). Tables A1 to A12, below, show the effects of selected compounds of the general formula (I) according to table 1 on various harmful plants and an application rate corresponding to 1280 g/ha or below obtained by the experimental procedure mentioned above. Table A1: pre-emergence activity at 1280g/ha against ABUTH in %

[6] = tested on: MATIN; assay: as above; assay type: in vivo, Matricaria inodora; settings: visual grading after ca. 3 weeks vs untreated controls, 100% = plants have died off, 0% = as control plants
How it was run: as §1

[7] = tested on: STEME; assay: as above; assay type: in vivo, Stellaria media; settings: visual grading after ca. 3 weeks vs untreated controls, 100% = plants have died off, 0% = as control plants
How it was run: as §1

[8] = tested on: AMARE; assay: as above; assay type: in vivo, Amaranthus retroflexus
How it was run: as §1

[9] = tested on: ZEAMX; assay: D. Pre-emergence effects on crop plants (Tables D); assay type: in vivo, Zea mays; settings: crop plant
Source text: (§4) Seeds of mono- and dicotyledonous weed plants and crop plants were sown, in plastic or organic planting pots, in sandy loam and covered with soil. The compounds according to the invention, formulated in the form of wettable powders (WP) or as emulsifiable concentrates (EC), were applied to the surface of the covering soil as aqueous suspension or emulsion, with the addition of 0.5% of an additive, at an application rate of 6001 of water/ha (converted).
(§5) Following treatment, the pots were placed in a greenhouse and kept under optimum growth conditions for the test plants. The visual grading of the damage to the test plants was carried out after ca. 3 weeks in comparison to untreated controls (herbicidal effect in percent (%): 100% effect = plants have died off, 0% effect = as control plants).
(§6) Tables D1 to D5 below show the effects of various compounds of the general formula (I) according to Table 1 on various crop plants and an application rate corresponding to 320 g/ha or below obtained by the experimental procedure mentioned above in Biological Examples, Section C. Table D1a: pre-emergence activity at 320g/ha against ZEAMX in %

[10] = tested on: TRZAS; assay: F. Post-emergence effects on crop plants (Tables F); assay type: in vivo, Triticum aestivum; settings: crop plant
How it was run: (§7)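 Plants were grown in sandy loam in a greenhouse and sprayed post-emergence at the single-leaf stage, 2–3 weeks after sowing. Visual damage was scored after ca. 3 weeks against untreated controls (0% = as control, 100% = dead).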

[11] = tested on: BRSNW; assay: as above; assay type: in vivo, Brassica napus; settings: application rate 320 g/ha, crop plant
How it was run: as §7

[12] = tested on: TRZAS; assay: D. Pre-emergence effects on crop plants (Tables D); assay type: in vivo, Triticum aestivum; settings: crop plant
Source text: as §4, §5, §6

[13] = tested on: ZEAMX; assay: F. Post-emergence effects on crop plants (Tables F); assay type: in vivo, Zea mays; settings: crop plant
How it was run: as §7

[14] = tested on: BRSNW; assay: D. Pre-emergence effects on crop plants (Tables D); assay type: in vivo, Brassica napus; settings: crop plant
How it was run: (§8)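 Pre-emergence soil-surface treatment at 320 g/ha or lower, using wettable-powder or emulsifiable-concentrate formulations in water plus 0.5% additive, over freshly sown seeds in covered sandy loam. Damage was rated visually as percent versus untreated pots (100% = dead plants) after about 3 weeks of greenhouse growth.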

[15] = tested on: KCHSC; assay: C. Herbicidal pre-emergence action, weed and crop plants (Tables C); assay type: in vivo, Kochia scoparia; settings: application rate 320 g/ha; Table C1
Source text: (§9) Seeds of mono- and dicotyledonous weed plants and crop plants were sown, in plastic or organic planting pots, in sandy loam and covered with soil. The compounds according to the invention, formulated in the form of wettable powders (WP) or as emulsifiable concentrates (EC), were applied to the surface of the covering soil as aqueous suspension or emulsion, with the addition of 0.5% of an additive, at an application rate of 6001 of water/ha (converted). Following treatment, the pots were placed in a greenhouse and kept under optimum growth conditions for the test plants. The visual grading of the damage to the test plants was carried out after ca. 3 weeks in comparison to untreated controls (herbicidal effect in percent (%): 100% effect = plants have died off, 0% effect = as control plants). Tables C1 to C12 below show the effects of selected compounds of the general formula (I) according to table 1 on various harmful plants and an application rate corresponding to 320 g/ha or below obtained by the experimental procedure mentioned above. Table C1: pre-emergence activity at 320g/ha against KCHSC in %

[16] = tested on: VIOTR; assay: as above; assay type: in vivo, Viola tricolor; settings: application rate 320 g/ha; Table C12a
Source text: as §9

[17] = tested on: GLXMA; assay: F. Post-emergence effects on crop plants (Tables F); assay type: in vivo, Glycine max; settings: application rate 320 g/ha, crop plant
How it was run: as §7

[18] = tested on: GLXMA; assay: D. Pre-emergence effects on crop plants (Tables D); assay type: in vivo, Glycine max; settings: crop plant
How it was run: as §8

[19] = tested on: SETVI; assay: B. Herbicidal post-emergence action on harmful plants (Tables B); assay type: in vivo, Setaria viridis; settings: application rate 1280 g/ha; Table B5
How it was run: as §2

[20] = tested on: KCHSC; assay: as above; assay type: in vivo, Kochia scoparia; settings: application rate 1280 g/ha; Table B10a
Experimental: Seeds of mono- and dicotyledonous weed plants were placed in plastic pots in sandy loam soil (doubly sown with in each case one species of mono- or dicotyledonous weed plants per pot), covered with soil and cultivated in a greenhouse under controlled growth conditions. 2 to 3 weeks after sowing, the test plants were treated at the one-leaf stage. The compounds of the invention, formulated in the form of wettable powders (WP) or as emulsion concentrates (EC), were applied onto the green parts of the plants as aqueous suspension or emulsion with addition of 0.5% additive at a water application rate of 600 liters per hectare (converted). After the test plants had been kept in the greenhouse under optimum growth conditions for about 3 weeks, the activity of the preparations was rated visually in comparison to untreated controls. For example, 100% activity = the plants have died, 0% activity = like control plants. Tables B1 to B12, below, show the effects of selected compounds of the general formula (I) according to table 1 on various harmful plants and an application rate corresponding to 1280 g/ha or below obtained by the experimental procedure mentioned above. Table B1a: post-emergence activity at 1280g/ha against ABUTH in %

[21] = tested on: ECHCG; assay: A. Herbicidal pre-emergence action on harmful plants (Tables A); assay type: in vivo, Echinochloa crus-galli; settings: visual grading after ca. 3 weeks vs untreated controls, 100% = plants have died off, 0% = as control plants
How it was run: as §1

[22] = tested on: AMARE; assay: B. Herbicidal post-emergence action on harmful plants (Tables B); assay type: in vivo, Amaranthus retroflexus; settings: application rate 1280 g/ha; Table B8
How it was run: as §2

[23] = tested on: STEME; assay: as above; assay type: in vivo, Stellaria media; settings: application rate 1280 g/ha; Table B6
How it was run: as §2

[24] = tested on: ABUTH; assay: A. Herbicidal pre-emergence action on harmful plants (Tables A); assay type: in vivo, Abutilon theophrasti; settings: application rate 1280 g/ha; visual grading after ca. 3 weeks vs untreated controls; 100% = plants have died off, 0% = as control plants
Source text: as §3

[25] = tested on: POAAN; assay: B. Herbicidal post-emergence action on harmful plants (Tables B); assay type: in vivo, Poa annua; settings: application rate 1280 g/ha; Table B7a
How it was run: as §2

[26] = tested on: LOLRI; assay: A. Herbicidal pre-emergence action on harmful plants (Tables A); assay type: in vivo, Lolium rigidum; settings: visual grading after ca. 3 weeks vs untreated controls, 100% = plants have died off, 0% = as control plants
How it was run: as §1

[27] = application rate 80 g/ha, Table A7c
[28] = application rate 320 g/ha, Table A7b
[29] = application rate 1280 g/ha, visual grading after ca. 3 weeks vs untreated controls, 100% = plants have died off, 0% = as control plants
[30] = application rate 320 g/ha, Table A12b
[31] = application rate 1280 g/ha, Table A12a

COCc1nn(Cc2ccccc2)cc1C(=O)N1CCCC1Cc1ccccc1F (racemic) [Example I-024]
pre-emergence activity against POAAN [1, 27]: 90%
pre-emergence activity against POAAN [1, 28]: 90%
pre-emergence activity against POAAN [1, 29]: 100%
post-emergence activity against VERPE [2]: 90%
pre-emergence activity against SETVI ([3]; application rate 80 g/ha): 90%
pre-emergence activity against SETVI ([3]; application rate 320 g/ha): 90%
pre-emergence activity against SETVI ([3]; application rate 1280 g/ha): 90%
pre-emergence activity against DIGSA [4, 30]: 90%
pre-emergence activity against DIGSA [4, 31]: 90%
pre-emergence activity against KCHSC [5]: 90%
pre-emergence activity against MATIN ([6]; application rate 80 g/ha): 90%
pre-emergence activity against MATIN ([6]; application rate 320 g/ha): 90%
pre-emergence activity against MATIN ([6]; application rate 1280 g/ha): 90%
pre-emergence activity against STEME ([7]; application rate 320 g/ha): 90%
pre-emergence activity against STEME ([7]; application rate 1280 g/ha): 100%
pre-emergence activity against AMARE ([8]; application rate 320 g/ha, Table A8b): 90%
pre-emergence activity against AMARE [8, 29]: 90%

COCc1c(C(=O)N2CCCC2(C)Cc2ccccc2F)cnn1C (single isomer, unassigned) [Example I-066]
pre-emergence activity against ZEAMX ([9]; application rate 80 g/ha, Table D1b): 0%
pre-emergence activity against ZEAMX ([9]; application rate 320 g/ha, Table D1a): 0%
post-emergence activity against TRZAS in % ([10]; application rate 80 g/ha): 0%
post-emergence activity against TRZAS in % ([10]; application rate 320 g/ha): 0%
post-emergence activity against BRSNW in % [11]: 0%
pre-emergence activity against TRZAS ([12]; application rate 80 g/ha, Table D2b): 0%
pre-emergence activity against TRZAS ([12]; application rate 320 g/ha, Table D2a): 0%
post-emergence activity against ZEAMX in % ([13]; application rate 80 g/ha): 0%
post-emergence activity against ZEAMX in % ([13]; application rate 320 g/ha): 0%
pre-emergence activity against BRSNW in % ([14]; application rate 80 g/ha): 0%
pre-emergence activity against BRSNW in % ([14]; application rate 320 g/ha): 0%
pre-emergence activity against KCHSC [15]: 100%
pre-emergence activity against VIOTR [16]: 80%
post-emergence activity against GLXMA in % [17]: 0%
pre-emergence activity against GLXMA ([18]; application rate 80 g/ha, Table D4b): 0%
pre-emergence activity against GLXMA ([18]; application rate 320 g/ha, Table D4a): 0%

Cn1ncc(C(=O)N2CCCC2Cc2ccccc2F)c1COCC(F)(F)F (single isomer, unassigned) [Example I-122]
pre-emergence activity against POAAN [1, 27]: 90%
pre-emergence activity against POAAN [1, 28]: 100%
pre-emergence activity against POAAN [1, 29]: 100%
pre-emergence activity against SETVI ([3]; application rate 80 g/ha): 90%
pre-emergence activity against SETVI ([3]; application rate 320 g/ha): 90%
pre-emergence activity against SETVI ([3]; application rate 1280 g/ha): 100%
pre-emergence activity against DIGSA ([4]; application rate 80 g/ha, Table A12c): 90%
pre-emergence activity against DIGSA [4, 30]: 90%
pre-emergence activity against DIGSA [4, 31]: 100%
post-emergence activity against SETVI [19]: 90%
post-emergence activity against KCHSC [20]: 90%
pre-emergence activity against MATIN ([6]; application rate 1280 g/ha): 100%
pre-emergence activity against STEME ([7]; application rate 320 g/ha): 90%
pre-emergence activity against STEME ([7]; application rate 1280 g/ha): 100%
pre-emergence activity against ECHCG ([21]; application rate 80 g/ha): 90%
pre-emergence activity against ECHCG ([21]; application rate 320 g/ha): 100%
pre-emergence activity against ECHCG ([21]; application rate 1280 g/ha): 100%
post-emergence activity against AMARE [22]: 90%
post-emergence activity against STEME [23]: 90%
pre-emergence activity against ABUTH [24]: 100%
post-emergence activity against POAAN [25]: 90%
pre-emergence activity against AMARE [8, 29]: 100%
pre-emergence activity against LOLRI ([26]; application rate 320 g/ha): 100%
pre-emergence activity against LOLRI ([26]; application rate 1280 g/ha): 100%
